# According to ChEMBL document CHEMBL3877300, “Design, synthesis, docking studies and biological evaluation of novel dihydro-1,3,5-triazines as human DHFR inhibitors” (Eur J Med Chem, 2017):
# Tests used:
# [1] = Antiproliferative activity against human MDA-MB-231 cells after 72 hrs by MTT assay; assay type: functional, cell-based; details: MDA-MB-231, 72 h
# [2] = Antiproliferative activity against human HepG2 cells after 72 hrs by MTT assay; assay type: functional, cell-based; details: HepG2, 72 h
# [3] = Antiproliferative activity against human HL60 cells after 72 hrs by MTT assay; assay type: functional, cell-based; details: HL-60, 72 h
# Dihydrofolate reductase = target: T1, Dihydrofolate reductase (Homo sapiens, UniProt P00374); test: Inhibition of recombinant human DHFR using DHF as substrate measured every 5 sec over 6 mins in presence of NADPH by UV-Visible spectrophotometric method relative to control
# T1 sequence (P00374 whole entry): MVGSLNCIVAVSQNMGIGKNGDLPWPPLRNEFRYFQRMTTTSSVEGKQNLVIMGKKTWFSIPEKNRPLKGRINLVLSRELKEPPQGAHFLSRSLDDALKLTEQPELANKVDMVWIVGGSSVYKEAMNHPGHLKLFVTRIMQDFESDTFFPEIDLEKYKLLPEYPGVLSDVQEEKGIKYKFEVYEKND
# cells [4] = details: Homo sapiens, A549, 72 h
# Description: Antiproliferative activity against human A549 cells after 72 hrs by MTT assay
# cells [5] = details: Homo sapiens, HCT-116, 72 h
# Description: Antiproliferative activity against human HCT116 cells after 72 hrs by MTT assay
# [6] = Antitumor activity against human A549 cells xenografted in BALB/c nude mouse assessed as tumor volume at 50 mg/kg, ip administered 14 times in 22 days measured on day 22 post dose (reference value: 912.28 +/- 140.04 mm3); assay type: functional
# [7] = Antitumor activity against human A549 cells xenografted in BALB/c nude mouse assessed as tumor growth inhibition at 50 mg/kg, ip administered 14 times in 22 days measured on day 11 post dose relative to control; assay type: functional; details: read-out: TGI
# Mus musculus [8] = test: Toxicity in BALB/c nude mouse xenografted with human A549 cells assessed as body weight at 50 mg/kg, ip administered 14 times in 22 days measured on day 8 post dose (reference value: 25.19 +/- 1.38 g); assay type: organism-based; details: in vivo, 528 h
# [9] = Antitumor activity against human A549 cells xenografted in BALB/c nude mouse assessed as tumor growth inhibition at 50 mg/kg, ip administered 14 times in 22 days measured on day 4 post dose relative to control; assay type: functional; details: read-out: TGI
# [10] = Antitumor activity against human A549 cells xenografted in BALB/c nude mouse assessed as tumor growth inhibition at 50 mg/kg, ip administered 14 times in 22 days measured on day 22 post dose relative to control; assay type: functional; details: 528 h, read-out: TGI
# [11] = Antitumor activity against human A549 cells xenografted in BALB/c nude mouse assessed as tumor volume at 50 mg/kg, ip administered 14 times in 22 days measured on day 1 post dose (reference value: 117.71 +/- 7.29 mm3); assay type: functional
# Mus musculus [12] = test: Toxicity in BALB/c nude mouse xenografted with human A549 cells assessed as body weight at 50 mg/kg, ip administered 14 times in 22 days measured on day 4 post dose (reference value: 24.84 +/- 1.22 g); assay type: organism-based; details: in vivo, 528 h
# Mus musculus [13] = test: Toxicity in BALB/c nude mouse xenografted with human A549 cells assessed as body weight at 50 mg/kg, ip administered 14 times in 22 days measured on day 1 post dose (reference value: 24.73 +/- 1.33 g); assay type: organism-based; details: in vivo, 528 h
# Mus musculus [14] = test: Toxicity in BALB/c nude mouse xenografted with human A549 cells assessed as body weight at 50 mg/kg, ip administered 14 times in 22 days measured on day 18 post dose (reference value: 25.66 +/- 1.16 g); assay type: organism-based; details: in vivo, 528 h
# Mus musculus [15] = test: Toxicity in BALB/c nude mouse xenografted with human A549 cells assessed as body weight at 50 mg/kg, ip administered 14 times in 22 days measured on day 15 post dose (reference value: 25.41 +/- 1.04 g); assay type: organism-based; details: in vivo, 528 h
# [16] = Antitumor activity against human A549 cells xenografted in BALB/c nude mouse assessed as tumor volume at 50 mg/kg, ip administered 14 times in 22 days measured on day 15 post dose (reference value: 502.27 +/- 69.26 mm3); assay type: functional
# Mus musculus [17] = test: Toxicity in BALB/c nude mouse xenografted with human A549 cells assessed as body weight at 50 mg/kg, ip administered 14 times in 22 days measured on day 11 post dose (reference value: 24.99 +/- 0.97 g); assay type: organism-based; details: in vivo, 528 h
# [18] = Antitumor activity against human A549 cells xenografted in BALB/c nude mouse assessed as tumor volume at 50 mg/kg, ip administered 14 times in 22 days measured on day 8 post dose (reference value: 288.71 +/- 54.75 mm3); assay type: functional
# [19] = Antitumor activity against human A549 cells xenografted in BALB/c nude mouse assessed as tumor volume at 50 mg/kg, ip administered 14 times in 22 days measured on day 4 post dose (reference value: 207.73 +/- 56.48 mm3); assay type: functional
# [20] = Antitumor activity against human A549 cells xenografted in BALB/c nude mouse assessed as tumor volume at 50 mg/kg, ip administered 14 times in 22 days measured on day 11 post dose (reference value: 373.93 +/- 59.98 mm3); assay type: functional
# [21] = Antitumor activity against human A549 cells xenografted in BALB/c nude mouse assessed as tumor volume at 50 mg/kg, ip administered 14 times in 22 days measured on day 18 post dose (reference value: 692.11 +/- 102.17 mm3); assay type: functional
# Mus musculus [22] = test: Toxicity in BALB/c nude mouse xenografted with human A549 cells assessed as body weight at 50 mg/kg, ip administered 14 times in 22 days measured on day 22 post dose (reference value: 25.59 +/- 1.16 g); assay type: organism-based; details: in vivo, 528 h
# [23] = Antitumor activity against human A549 cells xenografted in BALB/c nude mouse assessed as tumor growth inhibition at 50 mg/kg, ip administered 14 times in 22 days measured on day 15 post dose relative to control; assay type: functional; details: read-out: TGI
# [24] = Antitumor activity against human A549 cells xenografted in BALB/c nude mouse assessed as tumor growth inhibition at 50 mg/kg, ip administered 14 times in 22 days measured on day 8 post dose relative to control; assay type: functional; details: read-out: TGI
# [25] = Antitumor activity against human A549 cells xenografted in BALB/c nude mouse assessed as tumor growth inhibition at 50 mg/kg, ip administered 14 times in 22 days measured on day 18 post dose relative to control; assay type: functional; details: read-out: TGI
SMILES,IC50 ([1]; read-out: IC50),IC50 [2],IC50 [3],IC50 (Dihydrofolate reductase),IC50 (cells [4]),IC50 (cells [5]),other results
NC1=NC2(CCCCC2)N(OCCCOc2ccc(Cl)cc2)C(N)=N1,1210 nM,2330 nM,580 nM,49 nM,990 nM,380 nM,–
NC1=NC2(CCSCC2)N(OCCCOc2ccc(Cl)c(Cl)c2)C(N)=N1,10 nM,70 nM,140 nM,–,1 nM,1 nM,–
NC1=NC2(CCOCC2)N(OCCCOc2ccc(Br)cc2)C(N)=N1,–,–,310 nM,32.5 nM,280 nM,320 nM,–
NC1=NC2(CCOCC2)N(OCCCOc2cc(Cl)c(Cl)cc2Cl)C(N)=N1,–,–,2360 nM,36 nM,680 nM,2750 nM,–
NC1=NC2(CCSCC2)N(OCCCOc2ccccc2Br)C(N)=N1,10 nM,90 nM,180 nM,–,40 nM,1 nM,–
NC1=NC2(CCOCC2)N(OCCCOc2ccc(Cl)cc2)C(N)=N1,–,–,330 nM,33.6 nM,360 nM,690 nM,–
NC1=NC2(CCSCC2)N(OCCCOc2ccccc2Cl)C(N)=N1,80 nM,80 nM,390 nM,–,80 nM,1 nM,–
COc1ccc(OCCCON2C(N)=NC(N)=NC23CCOCC3)cc1,–,–,1670 nM,11.1 nM,660 nM,1500 nM,–
COc1ccc(OCCCON2C(N)=NC(N)=NC23CCSCC3)cc1,350 nM,880 nM,500 nM,–,240 nM,70 nM,–
NC1=NC2(CCSCC2)N(OCCCOc2cc(Cl)c(Cl)cc2Cl)C(N)=N1,110 nM,> 100000 nM,730 nM,–,> 100000 nM,1 nM,–
NC1=NC2(CCOCC2)N(OCCCOc2cccc(Cl)c2Cl)C(N)=N1,140 nM,330 nM,440 nM,–,100 nM,5 nM,–
NC1=NC2(CCSCC2)N(OCCCOc2cccc(Cl)c2Cl)C(N)=N1,1 nM,50 nM,30 nM,–,1 nM,1 nM,–
NC1=NC2(CCOCC2)N(OCCCOc2ccccc2)C(N)=N1,–,–,2460 nM,86.1 nM,1080 nM,6010 nM,–
Br.NC1=NC2(CCOCC2)N(OCCCOc2ccc(Cl)cc2Cl)C(N)=N1,–,–,330 nM,7.46 nM,70 nM,880 nM,Activity [6]: 574.09 mm3; inhibition in vivo at 50 mg/kg [7]: 16.3%; Activity (Mus musculus [8]): 23.17 g; inhibition in vivo at 50 mg/kg [9]: 17.6%; inhibition in vivo at 50 mg/kg [10]: 36.8%; Activity [11]: 117.63 mm3; Activity (Mus musculus [12]): 23.53 g; Activity (Mus musculus [13]): 23.65 g; Activity (Mus musculus [14]): 23.65 g; Activity (Mus musculus [15]): 23.63 g; Activity [16]: 378.49 mm3; Activity (Mus musculus [17]): 22.97 g; Activity [18]: 249.09 mm3; Activity [19]: 170.3 mm3; Activity [20]: 312.21 mm3; Activity [21]: 468.15 mm3; Activity (Mus musculus [22]): 23.47 g; inhibition in vivo at 50 mg/kg [23]: 24.7%; inhibition in vivo at 50 mg/kg [24]: 14.5%; inhibition in vivo at 50 mg/kg [25]: 32.8%
Cc1cc(C)cc(OCCCON2C(N)=NC(N)=NC23CCOCC3)c1,3570 nM,680 nM,720 nM,–,710 nM,190 nM,–
NC1=NC2(CCOCC2)N(OCCCOc2cccc(Br)c2)C(N)=N1,400 nM,320 nM,560 nM,–,160 nM,40 nM,–
NC1=NC2(CCOCC2)N(OCCCOc2cccc(Cl)c2)C(N)=N1,1020 nM,150 nM,520 nM,–,150 nM,120 nM,–
NC1=NC2(CCSCC2)N(OCCCOc2ccc(Cl)cc2Cl)C(N)=N1,60 nM,1380 nM,330 nM,4.08 nM,210 nM,1 nM,–
NC1=NC2(CCSCC2)N(OCCCOc2ccc(Cl)cc2)C(N)=N1,350 nM,1100 nM,430 nM,18.3 nM,580 nM,10 nM,–
NC1=NC2(CCSCC2)N(OCCCOc2ccc(Br)cc2)C(N)=N1,440 nM,1400 nM,350 nM,6.46 nM,740 nM,20 nM,–
NC1=NC2(CCOCC2)N(OCCCOc2ccc(F)cc2)C(N)=N1,–,–,2380 nM,46.6 nM,1060 nM,3280 nM,–
NC1=NC2(CCOCC2)N(OCCCOc2ccccc2Br)C(N)=N1,910 nM,860 nM,610 nM,–,160 nM,30 nM,–
NC1=NC2(CCOCC2)N(OCCCOc2ccc(Cl)c(Cl)c2)C(N)=N1,590 nM,380 nM,1240 nM,8.23 nM,790 nM,90 nM,–
Cc1ccc(OCCCON2C(N)=NC(N)=NC23CCOCC3)cc1,–,–,2580 nM,56.7 nM,1060 nM,2390 nM,–
NC1=NC2(CCOCC2)N(OCCCOc2ccccc2Cl)C(N)=N1,1430 nM,1750 nM,660 nM,–,2700 nM,70 nM,–
NC1=NC2(CCSCC2)N(OCCCOc2cccc(Cl)c2)C(N)=N1,130 nM,90 nM,260 nM,–,60 nM,1 nM,–
CC(C)(C)c1ccc(OCCCON2C(N)=NC(N)=NC23CCOCC3)cc1,–,–,870 nM,3.72 nM,500 nM,1610 nM,–
NC1=NC2(CCSCC2)N(OCCCOc2cccc(Br)c2)C(N)=N1,60 nM,90 nM,200 nM,–,50 nM,1 nM,–
CC(C)(C)c1ccc(OCCCON2C(N)=NC(N)=NC23CCSCC3)cc1,1 nM,70 nM,280 nM,–,1 nM,1 nM,–
COc1cccc2c1C(=O)c1c(O)c3c(c(O)c1C2=O)C[C@@](O)(C(=O)CO)C[C@@H]3O[C@H]1C[C@H](N)[C@H](O)[C@H](C)O1 [DOXORUBICIN],–,–,–,–,120 nM,310 nM,IC50 [1]: 720 nM
